Reference: ChEMBL document CHEMBL1201862, “PubChem BioAssay data set” (2004)
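Assay format: 96-well plates, 48-hour exposure. The concentration for 50% growth inhibition is given as GI50.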 Activity calls are given as the source filed them. No stated cut-off is given here; in the data, active = GI50 up to about 1.1 µM and inactive = higher.

How the values were obtained:
Assay in all cases: growth of human tumour cells (NCI), 48 h
[1] = system: A498
[2] = system: ACHN
[3] = system: COLO 205
[4] = system: DU-145
[5] = system: HCT-15
[6] = system: HOP-92
[7] = system: HT-29
[8] = system: Hs-578T
[9] = system: Malme-3M
[10] = system: NCI/ADR-RES
[11] = system: OVCAR-3
[12] = system: PC-3
[13] = system: RPMI-8226
[14] = system: SK-OV-3
[15] = system: SN12C
[16] = system: SNB-19
[17] = system: T47D
[18] = system: TK-10
[19] = system: UACC-257
[20] = system: UO-31

Measured: GI50

Nc1nc(N)c2ncn(Cc3ccccc3CO)c2n1
> 100 µM: [5]
inactive: [1] > 100 µM | [2] > 100 µM | [3] > 100 µM | [4] > 100 µM | [6] > 100 µM | [7] > 100 µM | [8] > 100 µM | [9] > 100 µM | [10] > 100 µM | [11] > 100 µM | [12] > 100 µM | [13] > 100 µM | [14] > 100 µM | [15] > 100 µM | [16] > 100 µM | [17] > 100 µM | [18] > 100 µM | [19] > 100 µM | [20] > 100 µM

COC(=O)C1=C(C(=O)OC)SC2(S1)C(C(=O)OC)=C(C(=O)OC)Sc1c2ss/c1=N\c1ccc(Cl)cc1
0.318 µM: [5]
active: [3] 0.774 µM | [4] 0.479 µM | [6] 0.638 µM | [7] 0.525 µM | [12] 0.44 µM | [15] 0.552 µM | [17] 1.06 µM | [19] 1.1 µM | [20] 0.804 µM
inactive: [1] 1.77 µM | [2] 1.4 µM | [8] 2.84 µM | [9] 1.83 µM | [10] 1.84 µM | [11] 1.39 µM | [14] 2 µM | [16] 1.53 µM | [18] 1.4 µM

COc1ccc2c(c1)c1c(n2CCN2CCOCC2)-c2ccccc2CC1
inactive: [1] 32.9 µM | [2] 38.5 µM | [3] 17.1 µM | [4] 35.7 µM | [6] 46.8 µM | [7] 36.6 µM | [8] 18.8 µM | [9] 32.8 µM | [10] 35.5 µM | [11] 44.8 µM | [12] 26.1 µM | [13] 22.5 µM | [14] > 100 µM | [15] 18.8 µM | [17] 39.5 µM | [18] 48.1 µM | [19] 47.1 µM | [20] > 100 µM
29.9 µM: [5]

COc1cc(Nc2cc(Cl)cc(Cl)c2)nc(N)n1
17.1 µM: [5]
inactive: [1] 21.9 µM | [2] 18.9 µM | [3] 23.1 µM | [4] 18.8 µM | [6] 16.4 µM | [7] 17.8 µM | [8] 26.2 µM | [9] 21.3 µM | [10] 20.5 µM | [11] 17.2 µM | [12] 20.8 µM | [13] 19.9 µM | [14] 27.5 µM | [15] 20.9 µM | [16] 22.9 µM | [17] 24.6 µM | [18] 21.6 µM | [19] 19.3 µM | [20] 16.9 µM

Cc1c(-c2ccc(-c3ccccc3F)cc2)nc2ccc(F)cc2c1C(=O)O [BREQUINAR SODIUM]
active: [2] 0.153 µM | [3] 0.519 µM | [4] 0.262 µM | [7] 0.374 µM | [12] 0.5 µM | [13] 0.373 µM
0.0566 µM: [5]
inactive: [1] 49.8 µM | [6] 35.2 µM | [8] 6.93 µM | [9] 15.4 µM | [10] 2.18 µM | [11] 3.74 µM | [14] 16.1 µM | [15] 1.79 µM | [16] 1.25 µM | [17] 16.9 µM | [18] 16.3 µM | [19] 12.5 µM | [20] 1.14 µM

CC(=O)OC(C)c1cc2c(s1)C(=O)c1sccc1C2=O (stereo unspecified)
inactive: [1] 2.33 µM | [2] 1.45 µM | [3] 1.89 µM | [6] 3.51 µM | [7] 1.96 µM | [10] 1.71 µM | [12] 2.19 µM | [14] 2.95 µM | [16] 1.29 µM | [17] 2.58 µM | [18] 1.85 µM | [20] 1.55 µM
0.902 µM: [5]
active: [4] 0.416 µM | [8] 0.807 µM | [9] 0.21 µM | [11] 0.604 µM | [13] 0.951 µM | [15] 0.542 µM | [19] 0.215 µM

O=C(OC1C#CCSCC#C/C=C\1)c1ccc2c(c1)C(=O)c1ccccc1C2=O (stereo unspecified)
inactive: [1] 33.3 µM | [2] 55 µM | [3] 82.2 µM | [4] > 100 µM | [6] 2.79 µM | [7] > 100 µM | [8] 24.2 µM | [9] > 100 µM | [10] 78.9 µM | [11] > 100 µM | [12] > 100 µM | [13] > 100 µM | [14] 18.1 µM | [15] > 100 µM | [16] 23.6 µM | [17] > 100 µM | [18] 27.9 µM | [19] > 100 µM | [20] 42.7 µM
> 100 µM: [5]

COc1ccc(C(SCCO)(c2ccc(OC)cc2)c2ccc(OC)cc2)cc1
inactive: [1] 17.8 µM | [2] 17.7 µM | [3] 11.2 µM | [4] 23.4 µM | [6] 10.1 µM | [7] 17 µM | [8] 17.2 µM | [9] 17.6 µM | [10] 13.6 µM | [11] 10.5 µM | [12] 13.8 µM | [14] 29.1 µM | [15] 17.5 µM | [16] 26.9 µM | [17] 6.03 µM | [18] 21.8 µM | [19] 13.5 µM | [20] 13 µM
11.4 µM: [5]

CC1=C(Br)C(=O)c2c(O)ccc(O)c2C1=O
inactive: [1] 1.7 µM | [4] 1.52 µM | [8] 2.81 µM | [12] 1.41 µM | [14] 1.85 µM | [15] 1.38 µM | [16] 1.72 µM | [18] 1.26 µM | [19] 1.13 µM
0.342 µM: [5]
active: [2] 0.869 µM | [3] 0.187 µM | [6] 0.627 µM | [7] 0.336 µM | [9] 0.295 µM | [10] 0.555 µM | [11] 0.74 µM | [13] 0.278 µM | [17] 0.412 µM | [20] 0.625 µM

CCOC(=O)c1ccc(/N=C2\SC(=S)N(c3ccc(F)cc3)\C2=N/c2ccc(C(=O)OCC)cc2)cc1
inactive: [1] > 100 µM | [2] 13.6 µM | [3] 19.3 µM | [4] 39.2 µM | [6] 7.76 µM | [7] 30.5 µM | [8] 13.9 µM | [9] 15.5 µM | [10] 17 µM | [11] 20 µM | [12] 13.5 µM | [13] 9.42 µM | [14] 86.9 µM | [15] 15.7 µM | [16] 65.2 µM | [17] 5.19 µM | [18] 18.9 µM | [19] 15.2 µM | [20] 10.8 µM
4.29 µM: [5]

CC(C)(C)OC(=O)NC(Cc1ccc([N+](=O)[O-])cc1)C(=O)NC(CCCCNC(=O)OCc1ccccc1)C(=O)ON1C(=O)CCC1=O (stereo unspecified)
> 100 µM: [5]
inactive: [1] > 100 µM | [2] > 100 µM | [3] > 100 µM | [4] > 100 µM | [6] > 100 µM | [7] > 100 µM | [8] > 100 µM | [9] > 100 µM | [10] > 100 µM | [11] > 100 µM | [12] 52.5 µM | [13] 57 µM | [14] > 100 µM | [15] 70.6 µM | [16] > 100 µM | [17] > 10 µM | [18] > 100 µM | [20] > 100 µM
